Results on 18 compounds are retold here after patent publication US20210015850A1, “COMPOSITION FOR IMPROVING INTESTINAL BARRIER FUNCTION” (SUNTORY HOLDINGS LIMITED, priority 2017, published 2021).

The subject of one experiment is Caco-2 cells. The experiment is described as follows: Intestinal barrier function improvement: suppression of cytokine-induced TEER reduction in Caco-2 monolayer. As to conditions: 10 μM; gallate vs non-gallate in the same evaluation. Format: cell-based, human. How it is done:
Caco-2 cells were cultured for three weeks at 37° C. in Transwell (manufactured by Millicell Corporation) using DMEM (Dulbecco's modified Eagle's medium). A medium was removed from a plate of cultured Caco-2 cells, and the well was washed 3 times with serum-free DMEM. The well was filled with the medium. Then, the transepithelial electrical resistance (TEER) of Caco-2 monolayer cells was measured by Millicell-ERS (manufactured by Millipore Corporation). Cells (TEER≥1000 Ω·cm^2) determined that a sufficient tight junction was formed were selected, and used for the next screening. Then, to test solutions (media) on both apical and basolateral membrane sides, a sample, TNFα (40 ng/mL), IL-1β (20 ng/mL), and IFNγ (10 ng/mL) were added, followed by cultivating for 48 hours. The sample was dissolved in dimethyl sulfoxide (DMSO), and the solution was then added to the test solutions. In this case, a well to which inflammatory cytokine (TNFα, IL-1β, and IFNγ) and the sample were not added was provided as normal. A well to which inflammatory cytokine was added and the sample was not added was provided as control. After the cultivation, TEER was measured again, to evaluate whether the sample suppressed the reduction (decrease) of TEER due to the inflammatory cytokine.
The TEER reduction suppression ratio (%) due to the sample was determined according to the following formula from the TEER values of the well to which the sample was added, normal, and control.
TEER reduction suppression ratio (%)−100×((TEER of well to which sample is added)−(TEER of control))/((TEER of normal)−(TEER of control))
In this evaluation system, as the TEER reduction suppression ratio (%) is higher, an intestinal barrier function improvement effect is higher.
The intestinal barrier function improvement action was evaluated by the same method (the method for evaluating intestinal barrier function improvement action described in Example 4) as that in Example 4. In Example 5, the sample was added into the test solution so that a sample concentration was set to 10 μmol/L. The TEER reduction suppression ratio (%) of the sample was obtained according to the formula from the TEER values of a well to which the sample was added, normal, and control in the same manner as in Example 4.
On to `O=C(O[C@@H]1Cc2c(O)cc(O)cc2O[C@@H]1c1ccc(O)c(O)c1)c1cc(O)c(O)c(O)c1` [Epicatechin gallate], for which the “Relative value of TEER reduction suppression ratio of gallate type compound (non-gallate type compound taken as 1)” value is given as 2.5.
As for `O=C(O[C@@H]1Cc2c(O)cc(O)cc2O[C@H]1c1cc(O)c(O)c(O)c1)c1cc(O)c(O)c(O)c1` [Gallocatechin gallate], the “Relative value of TEER reduction suppression ratio of gallate type compound (non-gallate type compound taken as 1)” value was found to be 3.2.

Still in this experiment, the particulars now being: Homo sapiens, Caco-2, 48 h; sample 10 μM (10 μmol/L); Example 5, Table 4; read-out: TEER reduction suppression ratio (%).
Regarding `O=C(OC[C@H]1O[C@@H](OC(=O)c2cc(O)c(O)c(O)c2)[C@H](OC(=O)c2cc(O)c(O)c(O)c2)[C@@H](OC(=O)c2cc(O)c(O)c(O)c2)[C@@H]1OC(=O)c1cc(O)c(O)c(O)c1)c1cc(O)c(O)c(O)c1` [1,2,3,4,6-penta-O-galloyl-β-D-glucose], the inhibition at 10 µM is 64%.
Take `O=C(OC[C@H]1O[C@@H](OC(=O)c2cc(O)c(O)c(O)c2)[C@H](OC(=O)c2cc(O)c(O)c(O)c2)[C@@H](OC(=O)c2cc(O)c(O)c(O)c2)[C@@H]1O)c1cc(O)c(O)c(O)c1` [1,2,3,6-tetra-O-galloyl-β-D-glucose]: the inhibition at 10 µM stood at 98%.
For `O=C(OC[C@H]1O[C@@H](OC(=O)c2cc(O)c(O)c(O)c2)[C@H](OC(=O)c2cc(O)c(O)c(O)c2)[C@@H](O)[C@@H]1OC(=O)c1cc(O)c(O)c(O)c1)c1cc(O)c(O)c(O)c1` [1,2,4,6-tetra-O-galloyl-β-D-glucose], the inhibition at 10 µM came out at 80%.
On to `O=C(OC[C@H]1O[C@@H](OC(=O)c2cc(O)c(O)c(O)c2)[C@H](O)[C@@H](O)[C@@H]1OC(=O)c1cc(O)c(O)c(O)c1)c1cc(O)c(O)c(O)c1` [1,4,6-tri-O-galloyl-β-D-glucose], for which the inhibition at 10 µM worked out at 56%.
On the same count and under the same terms, then `O=C(OC[C@H]1O[C@@H](O)[C@H](OC(=O)c2cc(O)c(O)c(O)c2)[C@@H](OC(=O)c2cc(O)c(O)c(O)c2)[C@@H]1OC(=O)c1cc(O)c(O)c(O)c1)c1cc(O)c(O)c(O)c1` [2,3,4,6-tetra-O-galloyl-β-D-glucose], with 93%; and `O=C(O[C@@H]1COC(=O)c2cc(O)c(O)c(O)c2-c2c(cc(O)c(O)c2O)C(=O)O[C@H]1[C@@H]1OC(=O)c2cc(O)c(O)c(O)c2-c2c(O)c(O)c(O)c3c2C(=O)O[C@H]1[C@@H]3O)c1cc(O)c(O)c(O)c1` [Casuarinin], with 82%; and `O=C1O[C@H]2[C@@H]3OC(=O)c4cc(O)c(O)c(O)c4-c4c(cc(O)c(O)c4O)C(=O)OC[C@H]2O[C@@H](OC(=O)c2cc(O)c(O)c(O)c2)[C@@H]3OC(=O)c2cc(O)c(O)c3c2[C@@H]2C1=CC(=O)[C@](O)(O3)C2(O)O` [Geranlin, geraniin], with 83%.
The same measure, in the same setting: then `O=C1OC[C@H]2OC(O)[C@@H]3OC(=O)c4cc(O)c(O)c(O)c4-c4c(cc(O)c(O)c4O)C(=O)O[C@H]3[C@@H]2OC(=O)c2cc(O)c(O)c(O)c2-c2c1cc(O)c(O)c2O` (some centres unmarked) [Pedunculagin], with 72%.
The same measure, in the same setting: then `O=C(O)c1cc(O)c(O)c(O)c1Oc1cc2c(c(O)c1O)-c1c(cc(O)c(O)c1O)C(=O)O[C@@H]1C(COC2=O)OC(O)C2OC(=O)c3cc(O)c(O)c(O)c3-c3c(cc(O)c(O)c3O)C(=O)O[C@H]21` (some centres unmarked) [Praecoxin A], with 74%; and `O=c1c(O)c(-c2ccc(O)c(O)c2)oc2cc(O)cc(O)c12` [quercetin, reference compound], with 38%.

The same experiment, now with this note: Homo sapiens, Caco-2; sample 10 μM; TNFα 40 ng/mL, IL-1β 20 ng/mL, IFNγ 10 ng/mL; 48 hours; Table 2; read-out: TEER reduction suppression ratio (%).
Take `O=C(O[C@@H]1Cc2c(O)cc(O)cc2O[C@@H]1c1ccc(O)c(O)c1)c1cc(O)c(O)c(O)c1` [Epicatechin gallate]: the inhibition at 10 µM came to 35%.
Regarding `Oc1cc(O)c2c(c1)O[C@H](c1ccc(O)c(O)c1)[C@H](O)C2` [Epicatechin, reference compound], the inhibition at 10 µM was determined as 14%.
Consider `O=C(O[C@@H]1Cc2c(O)cc(O)cc2O[C@H]1c1cc(O)c(O)c(O)c1)c1cc(O)c(O)c(O)c1` [Gallocatechin gallate], for which the inhibition at 10 µM is 60%.
On to `Oc1cc(O)c2c(c1)O[C@H](c1cc(O)c(O)c(O)c1)[C@@H](O)C2` [Gallocatechin, reference compound], for which the inhibition at 10 µM was found to be 19%.

Still in this experiment, the particulars now being: sample 10 μM (10 μmol/L); Example 5, Table 4.
Turning to `O=C(O[C@H]1COC(=O)c2cc(O)c(O)c(O)c2-c2c(cc(O)c(O)c2O)C(=O)O[C@H]1C1OC(=O)c2cc(O)c(O)c(O)c2-c2c(O)c(O)c(O)c3c2C(=O)O[C@H]1[C@@H]3c1c(O)cc(O)c2c1OC(c1ccc(O)c(O)c1)C(O)C2)c1cc(O)c(O)c(O)c1` (some centres unmarked) [Stenophyllanin A, stenophyllanin A], the “TEER reduction suppression ratio (%)” value worked out at 96%.
With `O=C(O[C@H]1[C@@H]2OC(=O)c3cc(O)c(O)c(O)c3-c3c(cc(O)c(O)c3O)C(=O)OC[C@H]2OC(O)[C@@H]1OC(=O)c1cc(O)c(O)c(O)c1)c1cc(O)c(O)c(O)c1` (some centres unmarked) [Tellimagrandin I, tellimagrandin I], the “TEER reduction suppression ratio (%)” value is reported as 65%.
Consider stenophyllanin B, for which the “TEER reduction suppression ratio (%)” value is 126%.

The experiment is the same for the next values; noted with them: sample 10 μM; TNFα 40 ng/mL, IL-1β 20 ng/mL, IFNγ 10 ng/mL; 48 hours; Table 2.
Take Catechin [reference compound]: the “TEER reduction suppression ratio (%)” value was 15%.
